Test results reported in ChEMBL document CHEMBL1156460, “Lumazine synthase from Candida albicans as an anti-fungal target enzyme: structural and biochemical basis for drug design” (J Biol Chem, 2007).

Each compound was assayed on Candida albicans (assay: Binding affinity to Candida albicans lumazine synthase).
Work on O=c1[nH]c(=O)c2[nH]c(=O)n(C[C@H](O)[C@H](O)[C@H](O)CO)c2[nH]1 yielded a Ka of 758000 M⁻¹.
Work on O=c1[nH]c(Cl)c(CCCCOP(=O)(O)O)c(=O)[nH]1 yielded a Ka of 6.61e+06 M⁻¹.
O=c1[nH]c(=O)c2c([nH]1)n(C[C@H](O)[C@H](O)[C@H](O)CO)c(=O)c(=O)n2CCCCOP(=O)(O)O was tested, and the Ka was 1.63e+06 M⁻¹.
With O=c1[nH]c(=O)c2c([nH]1)n(C[C@H](O)[C@H](O)[C@H](O)CO)c(=O)n2CCCOP(=O)(O)O the Ka was 3.53e+06 M⁻¹.
